System: tau phosphorylation
Assay: Tau phosphorylation after concussive injury in the rat (immunohistology)
Type: in vivo
Conditions: rat concussion model; 3 mg/kg intravenously at 30 min after induction of injury; assessed 3 days after the concussive event
Excerpt: Note that concussive injury in the rat causes extensive tau phosphorylation (B) by 3 days after the concussive event compared to non-injured animals (A). […] Having established that hyperphosphorylated tau accumulates perivascularly following concussive injury, we used an animal model of concussion to investigate whether concussion causes perivascular release of substance P. We developed a rodent model of concussion to replicate the concussive event (Donkin et al., 2004, 7th International Neurotrauma Symposium, pp 75-78, Medimond Publishers, Bologna, Italy) and subsequently determined whether substance P was released after such an event. There was a clear increase in brain perivascular substance P immunoreactivity after the concussive event (FIG. 2). […] Having shown that mechanical injury causes release of substance P after concussive injury, we then investigated whether Emend® reduces tau hyperphosphorlation after concussive injury. […] Note that concussive injury in the rat causes extensive tau phosphorylation (B) by 3 days after the concussive event compared to non-injured animals (A). […] Thus, administration of Emend® prevents tau hyperphosphorylation and thus prevents the development of CTE.

C[C@@H](O[C@H]1OCCN(Cc2nc(=O)[nH][nH]2)[C@H]1c1ccc(F)cc1)c1cc(C(F)(F)F)cc(C(F)(F)F)c1 [Emend®, 5-([(2R,3S)-2-((R)-1-[3,5-bis(trifluoromethyl)phenyl]ethoxy)-3-(4-fluorophenyl)morpholino]methyl)-1H-1,2,4-triazol-3(2H)-one]
effect on tau phosphorylation after concussive injury: almost complete inhibition of tau phosphorylation
